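Test compounds were applied to cells in 96-well plates for 48 hours at 5 doses. Abbreviation: GI50, concentration required for 50% inhibition of growth. TGI: concentration producing complete growth inhibition.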
Columns and labels:
Assay in all cases: NCI-60 cell line screen, 48 h
TK-10 renal = test system: TK-10 renal
LOX IMVI melanoma = test system: LOX IMVI melanoma
SF-268 CNS = test system: SF-268 CNS
ACHN renal = test system: ACHN renal
SK-MEL-2 melanoma = test system: SK-MEL-2 melanoma
COLO 205 colon = test system: COLO 205 colon
A549 NSCLC = test system: A549 NSCLC
PC-3 prostate = test system: PC-3 prostate
HCT-15 colon = test system: HCT-15 colon
HCT-116 colon = test system: HCT-116 colon
HCC-2998 colon = test system: HCC-2998 colon
IGROV1 ovarian = test system: IGROV1 ovarian
SNB-75 CNS = test system: SNB-75 CNS
SN12C renal = test system: SN12C renal
SNB-19 CNS = test system: SNB-19 CNS
U251 CNS = test system: U251 CNS
SF-295 CNS = test system: SF-295 CNS
HL-60(TB) leukemia = test system: HL-60(TB) leukemia
KM12 colon = test system: KM12 colon
UACC-62 melanoma = test system: UACC-62 melanoma
HS 578T breast = test system: HS 578T breast
K-562 leukemia = test system: K-562 leukemia
NCI-H226 lung = test system: NCI-H226 lung
MDA-MB-231 breast = test system: MDA-MB-231 breast
MCF7 breast = test system: MCF7 breast
OVCAR-8 ovarian = test system: OVCAR-8 ovarian
OVCAR-4 ovarian = test system: OVCAR-4 ovarian
UACC-257 melanoma = test system: UACC-257 melanoma
MALME-3M melanoma = test system: MALME-3M melanoma
UO-31 renal = test system: UO-31 renal
NCI-H460 lung = test system: NCI-H460 lung
NCI-H522 lung = test system: NCI-H522 lung
A498 renal = test system: A498 renal
SW-620 colon = test system: SW-620 colon
RXF 393 renal = test system: RXF 393 renal
OVCAR-3 ovarian = test system: OVCAR-3 ovarian
HT29 colon = test system: HT29 colon
M14 melanoma = test system: M14 melanoma
CCRF-CEM leukemia = test system: CCRF-CEM leukemia
786-0 renal = test system: 786-0 renal
OVCAR-5 ovarian = test system: OVCAR-5 ovarian
NCI/ADR-RES ovarian = test system: NCI/ADR-RES ovarian
SR leukemia = test system: SR leukemia
SF-539 CNS = test system: SF-539 CNS
BT-549 breast = test system: BT-549 breast
MOLT-4 leukemia = test system: MOLT-4 leukemia
HOP-62 NSCLC = test system: HOP-62 NSCLC
SK-MEL-28 melanoma = test system: SK-MEL-28 melanoma
NCI-H23 lung = test system: NCI-H23 lung
MDA-MB-435 = test system: MDA-MB-435
RPMI-8226 leukemia = test system: RPMI-8226 leukemia
SK-OV-3 ovarian = test system: SK-OV-3 ovarian
T-47D breast = test system: T-47D breast
HOP-92 NSCLC = test system: HOP-92 NSCLC
DU-145 prostate = test system: DU-145 prostate
CAKI-1 renal = test system: CAKI-1 renal
SK-MEL-5 melanoma = test system: SK-MEL-5 melanoma

## CCN(CC)CCN(Cc1ccc(F)cc1)c1ccc(CO)c(Cl)c1
TK-10 renal
  GI50: 4.86 µM
  TGI: 22.2 µM
LOX IMVI melanoma
  GI50: 21.1 µM
  TGI: 52.5 µM
SF-268 CNS
  GI50: 76.5 µM
  TGI: > 100 µM
ACHN renal
  GI50: 38.2 µM
  TGI: > 100 µM
SK-MEL-2 melanoma
  GI50: 21.2 µM
  TGI: 44.4 µM
COLO 205 colon
  GI50: 2.2 µM
  TGI: 5.54 µM
A549 NSCLC
  GI50: 2.42 µM
  TGI: 12.8 µM
PC-3 prostate
  GI50: 13.2 µM
  TGI: > 92.3 µM
HCT-15 colon
  GI50: 12.7 µM
  TGI: > 100 µM
HCT-116 colon
  GI50: 3.55 µM
  TGI: > 50.1 µM
HCC-2998 colon
  GI50: 3.09 µM
  TGI: 12.8 µM
IGROV1 ovarian
  GI50: 0.832 µM
  TGI: 3.61 µM
SNB-75 CNS
  GI50: 12.2 µM
  TGI: > 94.8 µM
SN12C renal
  GI50: 27.7 µM
  TGI: > 100 µM
SNB-19 CNS
  GI50: > 100 µM
  TGI: > 100 µM
U251 CNS
  GI50: 22.8 µM
  TGI: > 100 µM
SF-295 CNS
  GI50: 15.1 µM
  TGI: 49.9 µM
HL-60(TB) leukemia
  GI50: 23.1 µM
  TGI: > 58.5 µM
KM12 colon
  GI50: 18.8 µM
  TGI: 75.9 µM
UACC-62 melanoma
  GI50: 6.07 µM
  TGI: 20.8 µM
HS 578T breast
  GI50: 48.3 µM
  TGI: > 100 µM
K-562 leukemia
  GI50: 10.2 µM
  TGI: 41.5 µM
NCI-H226 lung
  GI50: 0.235 µM
  TGI: 0.713 µM
MDA-MB-231 breast
  GI50: 12.2 µM
  TGI: 54.2 µM
MCF7 breast
  GI50: 4.55 µM
  TGI: 85.5 µM
OVCAR-8 ovarian
  GI50: 5.37 µM
  TGI: 75.4 µM
OVCAR-4 ovarian
  GI50: 4.6 µM
  TGI: 35.2 µM
UACC-257 melanoma
  GI50: 12 µM
  TGI: 27.7 µM
MALME-3M melanoma
  GI50: 19.5 µM
  TGI: 37.3 µM
UO-31 renal
  GI50: 19.5 µM
  TGI: 95.1 µM
NCI-H460 lung
  GI50: 1.17 µM
  TGI: 3.97 µM
NCI-H522 lung
  GI50: 27.9 µM
  TGI: 68.2 µM
A498 renal
  GI50: 1.55 µM
  TGI: 3.18 µM
SW-620 colon
  GI50: 31.5 µM
  TGI: > 100 µM
RXF 393 renal
  GI50: 31.2 µM
  TGI: > 69.3 µM
OVCAR-3 ovarian
  GI50: 14 µM
  TGI: 35.9 µM
HT29 colon
  GI50: 18.6 µM
  TGI: 69.4 µM
M14 melanoma
  GI50: 17.2 µM
  TGI: 35.2 µM
CCRF-CEM leukemia
  GI50: 61.7 µM
  TGI: > 100 µM
786-0 renal
  GI50: 30.2 µM
  TGI: > 100 µM
OVCAR-5 ovarian
  GI50: 3.25 µM
  TGI: 12.4 µM
NCI/ADR-RES ovarian
  GI50: 9.64 µM
  TGI: 50.2 µM
SR leukemia
  GI50: 23.5 µM
  TGI: 67.9 µM
SF-539 CNS
  GI50: 48.1 µM
  TGI: > 100 µM
BT-549 breast
  GI50: > 89.6 µM
  TGI: > 100 µM
MOLT-4 leukemia
  GI50: 40.1 µM
  TGI: > 100 µM
HOP-62 NSCLC
  GI50: 9.84 µM
  TGI: 63.3 µM
SK-MEL-28 melanoma
  GI50: 17.2 µM
  TGI: 32.9 µM
NCI-H23 lung
  GI50: 35.4 µM
  TGI: > 100 µM
MDA-MB-435
  GI50: 23.5 µM
  TGI: 74.7 µM
RPMI-8226 leukemia
  GI50: 23.8 µM
  TGI: 75.3 µM
SK-OV-3 ovarian
  GI50: 2.96 µM
  TGI: 13.6 µM
T-47D breast
  GI50: 7.05 µM
  TGI: > 62.6 µM
HOP-92 NSCLC
  GI50: 2.66 µM
  TGI: 19.3 µM
DU-145 prostate
  GI50: 9.97 µM
  TGI: > 73.8 µM
CAKI-1 renal
  GI50: 1.85 µM
  TGI: 17.3 µM
SK-MEL-5 melanoma
  GI50: 16.3 µM
  TGI: 30.1 µM

From PubChem BioAssay (NCI)
